From patent US20090076130A1, “COMPOUNDS FOR THE INHIBITION OF HISTONE DEACETYLASE” (NATUREWISE BIOTECH & MEDICALS CORPORATION, priority 2007, published 2009)

Test system: human giloblastoma DBTRG-05MG cancer cells
Assay: Growth and morphology of human giloblastoma DBTRG-05MG cancer cells
Type: cell-based
Details: 72 hours
Description: The human giloblastoma DBTRG-05MG cancer cells were cultured in RPMI medium 1640 (Gibco) supplemented with penicillin G, streptomycin sulphate, 0.5 mM of L-glutamine and 10% fetal bovine serum (FBS; Gibco), 100 mh/L sodium pyruvate (Gibco), and 1% NEAA (Gibco) at 37° C., 5% CO2 and 95% relative humidity. For these experiments, the cells were seeded at a density of 3×10^5 per well of 6-well plates. After 24 hours, the cells were treated with different concentrations of NBM-HD-1 and 4 mM sodium butyrate. The cells were observed and counted after 72 hours. […] In 05MG cells (FIG. 7(A)), after incubation with 2.5 μg/mL (FIG. 7(A)-b), 5 μg/mL (FIG. 7(A)-c) and 10 μg/mL (FIG. 7(A)-d) of NBM-HD-1 for 72 hours, the density of the cells reduced dramatically in comparison with that of the control group (FIG. 7(A)-a). The 05MG cells in the experimental group also changed to become longer than those in the control group.

## COc1cc2c(c(OC)c1CCC(C)(C)O)C(=O)C[C@@H](c1ccc(OC)c(OC)c1C/C=C(\C)CCCC(C)(C)O)O2 [NBM-HD-1]
2.5, 5, 10 μg/mL
  morphology of 05MG cancer cells: change the morphology of 05MG cancer cells
NBM-HD-1 2.5, 5, 10 μg/mL or 4 mM sodium butyrate
  growth of 05MG cancer cells: can inhibit the growth of 05MG cells in a dose-dependent manner
